Results: patent publication US10183914B2 (BAYER CROPSCIENCE AKTIENGESELLSCHAFT, priority 2014, dated 2019)

How the values were obtained:
[1] = system: Triticum aestivum (spring); test: Pre-emergence herbicidal effect and crop plant compatibility; format: in vivo; details: 3 weeks
Source text: (§1) Seeds of monocotyledonous and dicotyledonous weed plants and crop plants are laid out in wood-fiber pots in sandy loam and covered with soil. The compounds of the invention, formulated in the form of wettable powders (WP) or as emulsion concentrates (EC), are then applied to the surface of the covering soil as aqueous suspension or emulsion at a water application rate equating to 600 to 800 L/ha with addition of 0.2% wetting agent.
(§2) After the treatment, the pots are placed in a greenhouse and kept under good growth conditions for the trial plants. The damage to the trial plants is scored visually after a trial duration of 3 weeks by comparison with untreated controls (herbicidal activity in percent (%): 100% efficacy=the plants have died, 0% efficacy=like control plants).

Zea mays [2] = test: as above; format: in vivo; details: 3 weeks
Source text: as §1, §2

Oryza sativa [3] = test: Post-emergence herbicidal effect and crop plant compatibility; format: in vivo; details: visual scoring after about 3 weeks
Procedure: (§3) Seeds of monocotyledonous and dicotyledonous weed and crop plants are laid out in sandy loam in wood-fiber pots, covered with soil and cultivated in a greenhouse under good growth conditions. 2 to 3 weeks after sowing, the test plants are treated at the one-leaf stage. The compounds of the invention, formulated in the form of wettable powders (WP) or as emulsion concentrates (EC), are then sprayed onto the green parts of the plants as aqueous suspension or emulsion at a water application rate equating to 600 to 800 L/ha with addition of 0.2% wetting agent. After the trial plants have been left to stand in a greenhouse under optimal growth conditions for about 3 weeks, the efficacy of the formulations is scored visually in comparison to untreated controls (herbicidal action in percent (%): 100% efficacy=the plants have died, 0% efficacy=like control plants).

[4] = system: Triticum aestivum (spring); test: as above; format: in vivo; details: visual scoring after about 3 weeks
Procedure: as §3

Zea mays [5] = test: as above; format: in vivo; details: visual scoring after about 3 weeks
Procedure: as §3

Echinochloa crus-galli [6] = test: Post-emergence herbicidal effect; format: in vivo; details: visual scoring after about 3 weeks
Procedure: as §3

Lolium multiflorum [7] = test: Post-emergence herbicidal effect; format: in vivo; details: 320 g/ha, visual scoring after about 3 weeks
Procedure: as §3

Setaria viridis [8] = test: Post-emergence herbicidal effect; format: in vivo; details: scoring after about 3 weeks
Procedure: as §3

Viola tricolor = test: Pre-emergence herbicidal effect; format: in vivo; details: 3 weeks
Source text: as §1, §2

Stellaria media = test: Pre-emergence herbicidal effect; format: in vivo; details: 3 weeks
Source text: as §1, §2

Alopecurus myosuroides = test: Pre-emergence herbicidal effect; format: in vivo; details: 320 g/ha, 3 weeks
Source text: as §1, §2

Matricaria inodora = test: Pre-emergence herbicidal effect; format: in vivo; details: 3 weeks
Source text: as §1, §2

Abutilon theophrasti = test: Pre-emergence herbicidal effect; format: in vivo; details: 320 g/ha, 3 weeks
Source text: as §1, §2

Echinochloa crus-galli [9] = test: Pre-emergence herbicidal effect; format: in vivo; details: 3 weeks
Source text: as §1, §2

Lolium multiflorum [10] = test: Pre-emergence herbicidal effect; format: in vivo; details: 3 weeks
Source text: as §1, §2

Amaranthus retroflexus = test: Pre-emergence herbicidal effect; format: in vivo; details: 3 weeks
Source text: as §1, §2

Setaria viridis [11] = test: Pre-emergence herbicidal effect; format: in vivo; details: 3 weeks
Source text: as §1, §2

Polygonum convolvulus = test: Pre-emergence herbicidal effect; format: in vivo; details: 3 weeks
Source text: as §1, §2

Veronica persica = test: Pre-emergence herbicidal effect; format: in vivo; details: 3 weeks
Source text: as §1, §2

Oryza sativa [12] = test: Pre-emergence herbicidal effect and crop plant compatibility; format: in vivo; details: 3 weeks
Source text: as §1, §2

[13] = logp (HCOOH), physicochemical characterization
Ipomoea purpurea = test: Post-emergence herbicidal effect; format: in vivo; details: 320 g/ha (dose by row order of upper half), scoring after about 3 weeks
Procedure: as §3

Avena fatua = test: Pre-emergence herbicidal effect; format: in vivo; details: 320 g/ha, 3 weeks
Source text: as §1, §2

[14] = 320 g/ha (dose by row order of upper half)

SMILES | TRZAS herbicidal activity in percent ([1]; 320 g/ha) | ZEAMX herbicidal activity in percent (Zea mays [2]; 320 g/ha) | post-emergence efficacy ORYSA (Oryza sativa [3]; 80 g/ha) | post-emergence efficacy ORYSA (Oryza sativa [3]; 320 g/ha) | post-emergence efficacy TRZAS ([4]; 80 g/ha) | post-emergence efficacy TRZAS ([4]; 320 g/ha) | post-emergence efficacy ZEAMX (Zea mays [5]; 80 g/ha) | post-emergence efficacy ZEAMX (Zea mays [5]; 320 g/ha) | VIOTR herbicidal activity in percent (Viola tricolor; 320 g/ha) | STEME herbicidal activity in percent (Stellaria media; 320 g/ha) | ALOMY herbicidal activity in percent (Alopecurus myosuroides) | MATIN herbicidal activity in percent (Matricaria inodora; 320 g/ha) | ECHCG herbicidal activity in percent (Echinochloa crus-galli [9]; 320 g/ha) | LOLMU herbicidal activity in percent (Lolium multiflorum [10]; 320 g/ha) | AMARE herbicidal activity in percent (Amaranthus retroflexus; 320 g/ha) | SETVI herbicidal activity in percent (Setaria viridis [11]; 320 g/ha) | POLCO herbicidal activity in percent (Polygonum convolvulus; 320 g/ha) | VERPE herbicidal activity in percent (Veronica persica; 320 g/ha) | ORYSA herbicidal activity in percent (Oryza sativa [12]; 320 g/ha) | logp (HCOOH) [13] | other results
Cc1cccc2c1OCC[C@H]2Nc1ncc2c(n1)CCCC2=O [2.100] | 10% | 10% | 0% | 0% | 10% | 20% | 10% | 10% | 100% | 100% | 80% | 100% | 100% | 100% | 100% | 100% | 90% | 100% | – | – | TRZAS herbicidal activity in percent ([1]; 80 g/ha): 0%; ZEAMX herbicidal activity in percent (Zea mays [2]; 80 g/ha): 0%; post-emergence efficacy ECHCG (Echinochloa crus-galli [6]; 80 g/ha): 100%; post-emergence efficacy ECHCG (Echinochloa crus-galli [6]; 320 g/ha): 100%; post-emergence efficacy LOLMU (Lolium multiflorum [7]): 100%; post-emergence efficacy SETVI (Setaria viridis [8]; 80 g/ha (dose by row order of upper half)): 90%; post-emergence efficacy SETVI (Setaria viridis [8]; [14]): 90%; VIOTR herbicidal activity in percent (Viola tricolor; 80 g/ha): 100%; STEME herbicidal activity in percent (Stellaria media; 80 g/ha): 100%; MATIN herbicidal activity in percent (Matricaria inodora; 80 g/ha): 100%; ABUTH herbicidal activity in percent (Abutilon theophrasti): 90%; ECHCG herbicidal activity in percent (Echinochloa crus-galli [9]; 80 g/ha): 100%; AMARE herbicidal activity in percent (Amaranthus retroflexus; 80 g/ha): 100%; SETVI herbicidal activity in percent (Setaria viridis [11]; 80 g/ha): 100%; POLCO herbicidal activity in percent (Polygonum convolvulus; 80 g/ha): 90%; VERPE herbicidal activity in percent (Veronica persica; 80 g/ha): 100%
Cc1ccc2c(c1)C(Nc1ncc3c(n1)CCCC3=O)CO2 (racemic) [2.117] | 0% | 20% | – | – | – | – | – | – | – | – | – | 100% | – | – | – | – | – | – | 0% | oily; logp (HCOOH): 2.52; 1H-NMR (CDCl3, 400 MHZ, δ in ppm): 2.10 (m, 2H, 2H | ABUTH herbicidal activity in percent (Abutilon theophrasti): 80%
O=C1CC(C(F)(F)F)Cc2nc(N[C@@H]3CCCc4ccccc43)ncc21 (stereo partly drawn) [2.96] | 0% | 10% | 0% | 0% | 10% | 20% | 0% | 10% | 100% | 100% | 80% | 90% | 100% | 90% | 100% | 90% | 80% | 100% | 0% | oily; logp (HCOOH): 3.71; 1H-NMR (CDCl3, 400 MHZ, δ in ppm): ): 1.95 (m, 3H, 2H | TRZAS herbicidal activity in percent ([1]; 80 g/ha): 0%; ZEAMX herbicidal activity in percent (Zea mays [2]; 80 g/ha): 0%; post-emergence efficacy PHBPU (Ipomoea purpurea): 80%; VIOTR herbicidal activity in percent (Viola tricolor; 80 g/ha): 100%; STEME herbicidal activity in percent (Stellaria media; 80 g/ha): 100%; AMARE herbicidal activity in percent (Amaranthus retroflexus; 80 g/ha): 100%; VERPE herbicidal activity in percent (Veronica persica; 80 g/ha): 100%
Cc1ccc2c(c1)[C@H](Nc1ncc3c(n1)CCCC3=O)[C@@H](C)C2 [2.118] | – | 0% | 0% | 0% | 0% | – | 0% | 10% | 100% | 100% | 90% | 100% | 100% | 100% | 100% | 100% | 100% | 100% | 10% | oily; logp (HCOOH): 4.51; 1H-NMR (CDCl3, 400 MHZ, δ in ppm): 1.25 (d, 3H, 3H | ORYSA herbicidal activity in percent (Oryza sativa [12]; 80 g/ha): 10%; TRZAS herbicidal activity in percent ([1]; 80 g/ha): 0%; ZEAMX herbicidal activity in percent (Zea mays [2]; 80 g/ha): 0%; post-emergence efficacy PHBPU (Ipomoea purpurea): 100%; post-emergence efficacy ECHCG (Echinochloa crus-galli [6]; 320 g/ha): 100%; post-emergence efficacy LOLMU (Lolium multiflorum [7]): 80%; post-emergence efficacy SETVI (Setaria viridis [8]; [14]): 80%; VIOTR herbicidal activity in percent (Viola tricolor; 80 g/ha): 100%; STEME herbicidal activity in percent (Stellaria media; 80 g/ha): 100%; MATIN herbicidal activity in percent (Matricaria inodora; 80 g/ha): 90%; LOLMU herbicidal activity in percent (Lolium multiflorum [10]; 80 g/ha): 80%; AMARE herbicidal activity in percent (Amaranthus retroflexus; 80 g/ha): 100%; SETVI herbicidal activity in percent (Setaria viridis [11]; 80 g/ha): 100%; VERPE herbicidal activity in percent (Veronica persica; 80 g/ha): 100%
CC1(C)CC(=O)c2cnc(NC3CCOc4ccccc43)nc2C1 (racemic) [2.94] | 0% | 0% | 0% | 0% | 10% | 20% | 0% | 0% | 100% | 100% | 80% | 100% | 100% | 90% | 100% | 90% | 100% | 100% | 0% | oily; logp (HCOOH): 2.97; 1H-NMR (CDCl3, 400 MHZ, δ in ppm): 1.10 (s, 6H, | post-emergence efficacy PHBPU (Ipomoea purpurea): 80%
O=C1CCCc2nc(N[C@@H]3CCOc4c(F)cccc43)ncc21 [2.19] | 0% | 10% | – | 20% | – | 20% | – | – | 100% | 100% | 100% | 100% | 100% | 100% | 100% | 100% | 100% | 100% | – | oily; logp (HCOOH): 2.29; 1H-NMR (CDCl3, 400 MHZ, δ in ppm): 2.15 (m, 3H, 2H | post-emergence efficacy PHBPU (Ipomoea purpurea): 80%; post-emergence efficacy ECHCG (Echinochloa crus-galli [6]; 320 g/ha): 100%; post-emergence efficacy LOLMU (Lolium multiflorum [7]): 100%; AVEFA herbicidal activity in percent (Avena fatua): 90%
CC(C)C1CC(=O)c2cnc(N[C@@H]3CCc4ccccc43)nc2C1 (stereo partly drawn) [2.103] | 0% | 0% | 0% | 0% | 10% | 20% | 0% | 0% | 100% | 100% | 80% | 100% | 100% | 90% | 100% | – | – | 100% | 0% | – | ORYSA herbicidal activity in percent (Oryza sativa [12]; 80 g/ha): 0%; TRZAS herbicidal activity in percent ([1]; 80 g/ha): 0%; ZEAMX herbicidal activity in percent (Zea mays [2]; 80 g/ha): 0%; post-emergence efficacy LOLMU (Lolium multiflorum [7]): 80%; STEME herbicidal activity in percent (Stellaria media; 80 g/ha): 100%; MATIN herbicidal activity in percent (Matricaria inodora; 80 g/ha): 100%; ECHCG herbicidal activity in percent (Echinochloa crus-galli [9]; 80 g/ha): 90%; AMARE herbicidal activity in percent (Amaranthus retroflexus; 80 g/ha): 100%; VERPE herbicidal activity in percent (Veronica persica; 80 g/ha): 100%
